Laboratory results: patent US9526705B2, “Lipidated glycosaminoglycan particles and their use in drug and gene delivery for diagnosis and therapy” (Tel-Aviv University Future Technology Development L.P., priority 2001, dated 2016)
One block for each compound: values may come before it.

Assays:
[1] = Efficiency of entrapment in gagomers (absorbency, ELISA plate reader); type: physicochemical
Protocol: The efficiency of entrapment of drugs or other bioactive agents in the gagomers and the kinetics of drug efflux for small molecular weight drugs were determined using absorbency in an ELISA plate reader, with appropriate wavelengths for each given entrapped entity.

[2] = system: MCF7 cells (human breast carcinoma); assay: BSA-FITC entry into cells, confocal microscopy; type: cell-based; settings: MCF7, 3.3 mg/ml, 25° C., 60 minutes
Protocol: Bovine serum albumin tagged with the fluorescent marker FITC (BSA-FITC) in both free form and entrapped in the DDS was used to determine whether DDS can also induce the entry of large macromolecules into cells. The free and the DDS-entrapped BSA-FITC were incubated at 25° C. for 60 minutes with confluent monolayers of MCF7 cells (originating from human breast carcinoma). MCF-7 cells are reported to have two known receptors for hyaluronic acid—ICAM-1 and CD44. The protein/DDS systems were cleaned from the free protein. The free and the entrapped protein were at the same concentration: 3.3 mg/ml. At the end of the incubation the cells were viewed by means of confocal microscopy.

B16F10 (mouse melanoma) = assay: Tumor metastasis model: lung metastases after i.v. B16F10 cells; type: in vivo, C57BL/6 mice; settings: day 21
Protocol: C57BL/6 female mice were used, which were 12 weeks old at initiation of the experiment. […] The DDS system was LLG in the form of nano particles. The test system was MMC formulated in the novel DDS of the present invention, denoted MMC/DDS.
Group 1 is a control group of healthy mice that were not inoculated with tumor cells.
B16F10 cells were grown in cell culture flasks. […] The injected dose was 5×10^5 cells in 50 μl PBS.
Treatments were given on days 1, 5 and 9. […] All injected volumes were 0.1 ml. The experiment was terminated 21 days post tumor inoculation. The animals were sacrificed, and the lungs were removed, weighed, and fixed in Bouin's solution. Lung weight increase was calculated using the following formula: Lung weight increase(%)=100×(tumor lung weight−normal lung weight)/normal lung weight Surface metastases were counted by an expert using a dissecting microscope.
Quantitative evaluation of metastases in the lungs can be performed by two independent measurements: actual counting of the metastases in excised and properly fixed lungs; and/or measurement of the increase in the weight of the lungs due to the metastases in the animals injected with tumor cells. Both techniques were implemented in the present study.

[3] = system: cell line C26 (mouse colon carcinoma); settings: 4 hours exposure, viable cells 24 hours from start, MMC 30 and 50 μg/ml
Description: This is an inherent multidrug resistant (MDR) line originating from mouse colon carcinoma.

[4] = i.v. tail vein, MMC 2 mg/kg
Protocol: Female BALB/c mice which were 8 weeks old at initiation of the experiment were used. […] The MMC dose was 2 mg/kg body, in both free and DDS formulations and the DDS dose was 1 mg/ml.
(§1) Treatments were given on days 5, 12 and 19. Administration was by injection into the tail vein. All injected volumes were 0.1 ml.
At selected periods post-injection, animals receiving drug-containing formulations were bled, and samples were treated according to established protocols. MMC concentration was determined by HPLC assay.

[5] = system: C-26 cells (mouse colon carcinoma); settings: Run 1
Protocol: Female BALB/c mice which were 8 weeks old at initiation of the experiment were used. The tumor model employed was C-26 cells (originating from mouse colon carcinoma) injected subcutaneously into the right hind footpad. […] The MMC dose was 2 mg/kg body, in both free and DDS formulations and the DDS dose was 1 mg/ml.
To provide the tumor, C-26 cells were grown in cell culture flasks. At day zero, the cells were harvested, washed several times, counted and immediately injected. The injected dose was 8×10^5 cells in 30 μl.
as §1
Parameters measured for Run 1 were retention in circulation, tumor onset, tumor volume, survival. Parameters measured for Run 2 were survival.

[6] = calculated from efflux rate constant, 50 minutes incubation
Description: The independent variable is time. The dependent variable (f) is the percentage of drug released at time=t with respect to the total drug in the system at time t=0.

Encapsulation Efficiency (%) By Kinetics ([1]; Micro-gagomers): 30.5 ± 1.9%
Encapsulation Efficiency (%) By Thermodynamics ([1]; Micro-gagomers): 39.3 ± 3.9%
Encapsulation Efficiency (%) By Kinetics ([1]; Nano-gagomers): 47.1 ± 1.5%
Encapsulation Efficiency (%) By Thermodynamics ([1]; Nano-gagomers): 47.4 ± 0.3%
Compound: O=C(N[C@H](CO)[C@H](O)c1ccc([N+](=O)[O-])cc1)C(Cl)Cl [Chloramphenicol]

Compound: α-Interferon
Encapsulation Efficiency (%) ([1]; DDS microparticles, insulin concentration 10 mg/ml): 72.5 ± 3.7%

Compound: free BSA-FITC: Bovine serum albumin tagged with the fluorescent marker FITC, free form
protein entry into the cells [2]: Some of the protein gained entry into the cell
protein entry into the nucleus [2]: not inside the nucleus

Compound: COc1cccc2c1C(=O)c1c(O)c3c(c(O)c1C2=O)C[C@@](O)(C(=O)CO)C[C@@H]3O[C@H]1C[C@H](N)[C@H](O)[C@H](C)O1 [Doxorubicin, doxorubicin]
Encapsulation Efficiency (%) By Kinetics ([1]; Micro-gagomers): 50.2 ± 1.2%
Encapsulation Efficiency (%) By Thermodynamics ([1]; Micro-gagomers): 52.4 ± 6.3%
Encapsulation Efficiency (%) By Kinetics ([1]; Nano-gagomers): 53.6 ± 0.9%
Encapsulation Efficiency (%) By Thermodynamics ([1]; Nano-gagomers): 57.0 ± 3.7%

Compound: CO[C@@]12[C@H](COC(N)=O)C3=C(C(=O)C(C)=C(N)C3=O)N1C[C@@H]1N[C@@H]12 [Mitomycin C, mitomycin C]
increase in lung weight, in words (B16F10 (mouse melanoma); saline group close to 400%): almost the same
number of lung metastases versus saline group (B16F10 (mouse melanoma); lungs, MMC 5 mg/Kg): no statistical difference
cell death (compared to untreated control) [3]: under 15%
retention in circulation [4]: disappears very quickly from the circulation
increase in tumor volume / tumor growth rate ([5]; 3 i.v. doses): not much different than in the saline group
day on which tumor was first detected ([5]; treatments on days 5, 12 and 19, MMC 2 mg/kg): 7 days

Compound: CC[n+]1c(-c2ccccc2)c2cc(N)ccc2c2ccc(N)cc21 [EtBr, ethidium bromide]
efflux of the entrapped marker in the course of the incubation [6]: ≤ 2%
